Values of other authors, collected in patent US8969340B2, “Methods for treating chronic pelvic pain syndrome” (Northwestern University, priority 2004, dated 2015).
Read-outs that look alike come from different tables or passages of the source.

Target: T1, CCR-2 receptor (Homo sapiens, UniProt P41597)
T1 sequence (P41597 1-360 isoform P41597-2): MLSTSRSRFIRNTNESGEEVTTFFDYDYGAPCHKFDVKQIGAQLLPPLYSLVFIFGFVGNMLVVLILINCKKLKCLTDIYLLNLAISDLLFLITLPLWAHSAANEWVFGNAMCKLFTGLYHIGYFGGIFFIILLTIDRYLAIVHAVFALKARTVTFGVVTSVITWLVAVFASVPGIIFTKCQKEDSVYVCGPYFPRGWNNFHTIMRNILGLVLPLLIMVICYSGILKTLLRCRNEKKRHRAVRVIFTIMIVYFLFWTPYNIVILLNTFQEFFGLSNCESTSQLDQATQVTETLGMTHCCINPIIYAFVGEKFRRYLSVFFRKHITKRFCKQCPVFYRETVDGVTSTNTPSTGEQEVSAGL
Details: indolopiperidines

**Q.** Which Ki (variation of X and R) does the source give for O=S(=O)(NCCCCCN1CCC(c2c[nH]c3ccccc23)CC1)c1ccc(Cl)c(Cl)c1 [compound 10] here?
**A.** > 10 µM

**Q.** For O=C(/C=C/c1ccc(Cl)c(Cl)c1)NCCN1CCC(c2c[nH]c3ccccc23)CC1 [compound 30], which Ki (variation of chain length n) is on record?
**A.** > 10 µM
